Experimental data published in ChEMBL document CHEMBL1201862, “PubChem BioAssay data set” (2004).
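Compound exposure: 48 hours, 5 concentrations, 96-well plates. GI50 = concentration required for 50% inhibition of growth.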 Active and inactive are the calls of the source. Rule as the data show it: active = GI50 up to about 1.1 µM and inactive = higher.

How the values were obtained:
Assay in all cases: NCI anticancer screen, dose series, 48 h
MDA-MB-231 = test system: MDA-MB-231
M14 = test system: M14
U-251 = test system: U-251
SK-MEL-28 = test system: SK-MEL-28
A549 = test system: A549
CCRF-CEM = test system: CCRF-CEM
SK-OV-3 = test system: SK-OV-3
MDA-N = test system: MDA-N
MOLT-4 = test system: MOLT-4
Malme-3M = test system: Malme-3M
K562 = test system: K562
HCC 2998 = test system: HCC 2998
NCI-H522 = test system: NCI-H522
SK-MEL-2 = test system: SK-MEL-2
HCT-15 = test system: HCT-15
786-0 = test system: 786-0
IGROV-1 = test system: IGROV-1
RPMI-8226 = test system: RPMI-8226
HCT-116 = test system: HCT-116
A498 = test system: A498

Compound | GI50 (MDA-MB-231) | GI50 (M14) | GI50 (U-251) | GI50 (SK-MEL-28) | GI50 (A549) | GI50 (CCRF-CEM) | GI50 (SK-OV-3) | GI50 (MDA-N) | GI50 (MOLT-4) | GI50 (Malme-3M) | GI50 (K562) | GI50 (HCC 2998) | GI50 (NCI-H522) | GI50 (SK-MEL-2) | GI50 (HCT-15) | GI50 (786-0) | GI50 (IGROV-1) | GI50 (RPMI-8226) | GI50 (HCT-116) | GI50 (A498)
CCOC(=O)C(NCc1ccccc1)(NC(=O)c1ccccc1)C(F)(F)F (stereo not given) | 21.4 µM (inactive) | > 100 µM (inactive) | > 100 µM (inactive) | > 100 µM (inactive) | > 100 µM (inactive) | 24.2 µM (inactive) | > 100 µM (inactive) | > 100 µM (inactive) | 32.3 µM (inactive) | > 100 µM (inactive) | 60.1 µM (inactive) | > 100 µM (inactive) | 35.6 µM (inactive) | > 100 µM (inactive) | 78.3 µM | > 100 µM (inactive) | > 100 µM (inactive) | 33.3 µM (inactive) | > 100 µM (inactive) | 
Cc1ccc(Oc2cc(C)ccc2P(=O)(O)O)cc1 | > 100 µM (inactive) | > 100 µM (inactive) |  | > 100 µM (inactive) | > 100 µM (inactive) | > 100 µM (inactive) | > 100 µM (inactive) | > 100 µM (inactive) | > 100 µM (inactive) |  | > 100 µM (inactive) | > 100 µM (inactive) | > 100 µM (inactive) | > 100 µM (inactive) | > 100 µM | > 100 µM (inactive) | > 100 µM (inactive) | > 100 µM (inactive) | > 100 µM (inactive) | 
CSc1ccc(C2C(Cl)C(=O)N2NC(=O)c2c(Cl)c(Cl)c(Cl)c(Cl)c2-c2nc3ccccc3[nH]2)cc1 (stereo not given) |  | 20.5 µM (inactive) |  | 17.2 µM (inactive) | 31.4 µM (inactive) | 2.48 µM (inactive) | 26.6 µM (inactive) | 21.5 µM (inactive) | 4.7 µM (inactive) | 19 µM (inactive) | 18.1 µM (inactive) | 20.2 µM (inactive) | 1.83 µM (inactive) | 31.6 µM (inactive) | 19.1 µM | 18.4 µM (inactive) | 0.402 µM (active) |  | 15.8 µM (inactive) | 31.8 µM (inactive)
Cc1ccc(S(=O)(=O)Oc2ccc(OS(=O)(=O)c3ccc(C)cc3)c3c2C(=O)c2ccccc2C3=O)cc1 | 66.7 µM (inactive) | > 100 µM (inactive) | > 100 µM (inactive) | > 100 µM (inactive) | > 100 µM (inactive) | > 100 µM (inactive) | > 100 µM (inactive) | > 100 µM (inactive) | > 100 µM (inactive) | > 100 µM (inactive) | > 100 µM (inactive) | > 100 µM (inactive) | > 100 µM (inactive) | > 100 µM (inactive) | > 100 µM | 50.7 µM (inactive) | > 100 µM (inactive) |  | > 100 µM (inactive) | 
[O-][s+]1c2c(Cc3ccccc3)c(Cc3ccccc3)c1CCc1cccc(c1)CC2 | 15.9 µM (inactive) | 14.7 µM (inactive) | 13.9 µM (inactive) | 20.7 µM (inactive) | 13.9 µM (inactive) | 19.6 µM (inactive) | 10.7 µM (inactive) | 14.1 µM (inactive) | 14 µM (inactive) | 17.1 µM (inactive) | 11.2 µM (inactive) | 14.1 µM (inactive) | 11.3 µM (inactive) | 17 µM (inactive) | 12.9 µM | 15.2 µM (inactive) |  |  | 8.99 µM (inactive) | 
C[C@]12c3c4cc(NC(=O)C(=O)NCc5ccc(-c6ccccn6)nc5)cc3Oc3cc(NC(=O)C(=O)NCc5ccc(-c6ccccn6)nc5)cc(c31)OC1C=C(NC(=O)C(=O)NCc3ccc(-c5ccccn5)nc3)C=C(O4)C12 (stereo not given in full) | 9.59 µM (inactive) | 98.2 µM (inactive) | 84.9 µM (inactive) | 95.1 µM (inactive) | 86.5 µM (inactive) | 16.6 µM (inactive) | 17 µM (inactive) | 34 µM (inactive) | 12.6 µM (inactive) |  | 84.9 µM (inactive) |  | 66.5 µM (inactive) | 38.7 µM (inactive) | 27.8 µM | 18.1 µM (inactive) | 16.9 µM (inactive) | 42.1 µM (inactive) | 29.2 µM (inactive) | 
COc1ccc(N[C@H](C[S+]([O-])c2ccc(C)cc2)c2ccc(F)cc2)cc1 (stereo not given in full) | 40.5 µM (inactive) | 64.3 µM (inactive) | 44.5 µM (inactive) | > 100 µM (inactive) | 43 µM (inactive) | > 100 µM (inactive) | 72.3 µM (inactive) | 39.3 µM (inactive) | > 100 µM (inactive) | 31.9 µM (inactive) | > 100 µM (inactive) | > 100 µM (inactive) | 13.2 µM (inactive) | > 100 µM (inactive) | 27.5 µM | 65.3 µM (inactive) | < 0.01 µM (active) | > 100 µM (inactive) | > 100 µM (inactive) | 
CC1(C)CC(=O)C(=CNC(N)=S)C(=O)C1 | > 100 µM (inactive) | > 100 µM (inactive) | > 100 µM (inactive) | > 100 µM (inactive) | > 100 µM (inactive) | > 100 µM (inactive) | > 100 µM (inactive) | > 100 µM (inactive) | > 100 µM (inactive) |  |  | > 100 µM (inactive) | > 100 µM (inactive) | > 100 µM (inactive) | > 100 µM | > 100 µM (inactive) | > 100 µM (inactive) |  | > 100 µM (inactive) | 
